Measured values taken from ChEMBL document CHEMBL6083273, “Targeting Periplakin of Novel Benzenesulfonamides as Highly Selective Agonists for the Treatment of Vitiligo” (2024).
The source made the active and inactive calls. The rule behind the calls is not given here.

Columns and labels:
[1] = organism: Danio rerio; assay: Induction of melanogenesis in zebrafish treated for 24 hrs by absorbance based assay (reference value: 98.2 to 100.3 %); assay type: functional
[2] = organism: Danio rerio; assay: Induction of melanogenesis in zebrafish at 40 uM treated for 24 hrs by absorbance based assay; assay type: functional, organism-based
[3] = organism: Danio rerio; assay: Induction of melanogenesis in zebrafish treated for 24 hrs by absorbance based assay; assay type: functional, organism-based
[4] = organism: Danio rerio; assay: Induction of melanogenesis in zebrafish at 40 uM treated for 24 hrs by absorbance based assay relative to control; assay type: functional
[5] = organism: Danio rerio; assay: Induction of melanogenesis in zebrafish at 0.1 nM treated for 24 hrs by absorbance based assay; assay type: functional, organism-based

| Structure (SMILES) | Activity [1] [%] | other results |
| --- | --- | --- |
| C[C@H](Nc1nccc(NS(=O)(=O)c2cccc([N+](=O)[O-])c2)n1)c1ccc([N+](=O)[O-])cc1 | 129.75 | – |
| C[C@H](Nc1nccc(NS(=O)(=O)c2cccc([N+](=O)[O-])c2)n1)c1ccc(-c2ccc(F)c(COCCCNC(=O)CCCC[C@@H]3SC[C@@H]4NC(=O)N[C@@H]43)c2)cc1 | – | Activity [2]: Active |
| Cc1cc(-c2ccc([C@H](C)Nc3nccc(NS(=O)(=O)c4ccccc4)n3)cc2)ccc1F | – | Activity [3]: Dose-dependent-effect; Emax at 40 µM [4]: 139% |
| C[C@H](Nc1nccc(NS(=O)(=O)c2cccc([N+](=O)[O-])c2)n1)c1ccc(C2CC2)cc1 | 149.56 | – |
| O=[N+]([O-])c1cccc(S(=O)(=O)Nc2ccnc(NCc3ccccc3)n2)c1 | 107.18 | – |
| Cc1cc(-c2ccc([C@H](C)Nc3nccc(NS(=O)(=O)c4cccc(C(F)(F)F)c4)n3)cc2)ccc1F | 58.78 | – |
| C=C1/C(=C\C=C2/CCC[C@]3(C)[C@@H]([C@H](C)/C=C/[C@@H](O)C4CC4)CC[C@@H]23)C[C@@H](O)C[C@@H]1O | – | Activity [5]: Active |
| O=[N+]([O-])c1cccc(S(=O)(=O)Nc2ccnc(NCc3ccc(C(F)(F)F)cc3)n2)c1 | 93.387 | – |
| Cc1ccc(CNc2nccc(NS(=O)(=O)c3cccc([N+](=O)[O-])c3)n2)cc1 | 148.37 | – |
| COc1ccc(CNc2nccc(NS(=O)(=O)c3cccc([N+](=O)[O-])c3)n2)cc1 | 132.54 | – |
| Cc1cc(-c2ccc([C@H](C)Nc3nccc(NS(=O)(=O)c4cc(F)cc(F)c4)n3)cc2)ccc1F | 81.815 | – |
| C[C@H](Nc1nccc(NS(=O)(=O)c2cccc([N+](=O)[O-])c2)n1)c1ccc(-c2cccs2)cc1 | 94.688 | – |
| O=[N+]([O-])c1cccc(S(=O)(=O)Nc2ccnc(NCc3ccc(F)cc3)n2)c1 | 115.42 | – |
